# Experiments:
# H929 target cells [1] = experiment: Protein 1 induced ADCC after pretreatment of both PBMC and H929 target cells; type: cell-based, human
# Method: PBMCs from a healthy donor were pre-incubated for 48 hours in the presence of CC-92480 or CC-220 (iberdomide) or a DMSO control. Additionally, H929 cells were also pre-incubated separately from the PBMCs for 48 hours with CELMoD. For CC-92480, PBMC and H929 were incubated in 0.1 nM, 1 nM or 10 nM concentrations. For CC-220, cells were incubated in 1 nM or 10 nM concentrations. Cells were also pre-incubated in with a DMSO control. After pretreatment, PBMC and H929 were combined based on their matched treatments and incubated for an additional 18 hours or overnight in the presence of a dose range of Protein 1, 0 nM to 10 nM. Samples were analyzed via flow cytometry for H929 depletion. Specific lysis was calculated as following: (1−((test sample H929 count)/(H929 count in DMSO control without PBMC and without Protein 1)))*100. PBMC and H929 cells were pretreated separately with varying doses of CC-92480 (FIG. 14A) or CC-220 (FIG. 14B) or a DMSO control for 48 hours. After pretreatment, PBMCs and H929 target cells were combined and co-cultured overnight with a dose range of Protein 1 at 0 nM to 10 nM. H929 cell depletion was analyzed by flow cytometry. […] Pretreatment of both PBMC and H929 target cells with CC-92480 or CC-220 (iberdomide) enhanced Protein 1 induced ADCC.
# H929 target cells [2] = experiment: Protein 1 induced ADCC after pretreatment of PBMCs with different concentrations (H929 lysis, flow cytometry); type: cell-based, human; conditions: for % lysis with Protein 1: 0.1 nM Protein 1, % change from DMSO control + Protein 1; for % lysis without Protein 1: % change from DMSO control
# Method: PBMCs from two healthy donors were pre-incubated for 24 hours or 48 hours in the presence of CC-92480 or a DMSO control. CC-92480 was added at 0.001 nM, 0.01 nM, 0.1 nM, 1 nM and 10 nM concentrations. After pretreatment, PBMCs were incubated for an additional 18 hours or overnight in the presence of H929 target cells with or without the addition of 0.1 nM of Protein 1. Samples were analyzed via flow cytometry for H929 depletion. Specific lysis was calculated as following: (1−((test sample H929 count)/(H929 count in DMSO control without Protein 1)))*100. PBMCs from two healthy donors were pre-incubated for 24 hours or 48 hours in the presence of CC-220 or a DMSO control. CC-220 was added at 0.01 nM, 0.1 nM, 1 nM, 10 nM and 100 nM concentrations. After pretreatment, PBMCs were incubated for an additional 18 hours or overnight in the presence of H929 target cells with or without the addition of 0.1 nM of Protein 1. Samples were analyzed via flow cytometry for H929 depletion. Specific lysis was calculated as following: (1−((test sample H929 count)/(H929 count in DMSO control without Protein 1)))*100. […] Data is normalized to % change of sample from the control treated DMSO sample+/−Protein 1. For % lysis without Protein 1, the control sample is PBMC pretreated with DMSO+H929. For % lysis with Protein 1, the control sample is PBMC pretreated with DMSO+H929+0.1 nM of Protein 1.
# H929 target cells [3] = experiment: Protein 1 induced ADCC after pretreatment of PBMCs with single concentration, Protein 1 dose range; type: cell-based, human; conditions: PBMCs pretreated 24 or 48 hours with 0.1 nM CC-92480 or 1 nM CC-220; Protein 1 0 nM to 10 nM
# Method: PBMCs from a healthy donor were preincubated for 24 hours or 48 hours in the presence of CC-92480 at 0.1 nM or CC-220 (iberdomide) at 1 nM or a DMSO control. After pretreatment, PBMCs were incubated for an additional 18 hours or overnight in the presence of H929 target cells with concentrations of Protein 1 ranging from 0 nM to 10 nM. Samples were analyzed via flow cytometry for H929 depletion. Specific lysis was calculated as following: (1−((test sample H929 count)/(H929 count in DMSO control without Protein 1)))*100. PBMCs were pretreated 0.1 nM of CC-92480 or 1 nM of CC-220 or DMSO control for either 24 hours (FIG. 13A) or 48 hours (FIG. 13B). After pretreatment, PBMCs were cultured with H929 target cells and 0 nM to 10 nM of Protein 1 overnight. H929 lysis was determined via flow cytometry. Pretreatment of PBMCs with single concentration of CC-92480 or CC-220 enhanced Protein 1 induced ADCC.
# NKG2D+ NK cells = experiment: Surface expression of NKG2D on NK cells in DLBCL patient PBMC; type: cell-based, human; conditions: PBMCs treated 1 hour prior to anti-CD3 stimulation for 3 days
# Method: Surface expression of NKG2D was measured by flow cytometry gated on live CD3-CD19-CD14-CD56+CD16+NK cells.
# Ikaros [4] = biological target: T1, Ikaros (Homo sapiens, UniProt Q13422+Q96SW2); experiment: Degradation of Ikaros in primary NK cells (intracellular staining, flow cytometry); type: cell-based; design: endogenous in cells; host or cells: primary human NK cells gated from healthy-donor PBMCs; conditions: PBMCs from healthy donors (n=7), dose titrations, 5 hours
# T1 sequence (Q13422 whole entry): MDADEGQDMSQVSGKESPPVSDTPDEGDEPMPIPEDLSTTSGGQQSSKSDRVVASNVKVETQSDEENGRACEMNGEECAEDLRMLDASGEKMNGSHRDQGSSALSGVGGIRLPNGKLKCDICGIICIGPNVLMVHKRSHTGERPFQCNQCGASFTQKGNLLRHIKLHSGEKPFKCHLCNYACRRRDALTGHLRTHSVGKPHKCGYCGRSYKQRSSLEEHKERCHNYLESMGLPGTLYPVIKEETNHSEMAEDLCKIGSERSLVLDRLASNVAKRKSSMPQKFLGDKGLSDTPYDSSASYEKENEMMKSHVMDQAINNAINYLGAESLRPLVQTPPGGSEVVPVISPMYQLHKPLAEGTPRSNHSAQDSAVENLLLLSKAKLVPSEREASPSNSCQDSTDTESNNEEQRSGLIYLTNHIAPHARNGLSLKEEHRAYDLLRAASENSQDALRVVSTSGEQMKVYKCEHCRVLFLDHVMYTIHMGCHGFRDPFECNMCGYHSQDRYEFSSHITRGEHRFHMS
# T1 sequence (Q96SW2 whole entry): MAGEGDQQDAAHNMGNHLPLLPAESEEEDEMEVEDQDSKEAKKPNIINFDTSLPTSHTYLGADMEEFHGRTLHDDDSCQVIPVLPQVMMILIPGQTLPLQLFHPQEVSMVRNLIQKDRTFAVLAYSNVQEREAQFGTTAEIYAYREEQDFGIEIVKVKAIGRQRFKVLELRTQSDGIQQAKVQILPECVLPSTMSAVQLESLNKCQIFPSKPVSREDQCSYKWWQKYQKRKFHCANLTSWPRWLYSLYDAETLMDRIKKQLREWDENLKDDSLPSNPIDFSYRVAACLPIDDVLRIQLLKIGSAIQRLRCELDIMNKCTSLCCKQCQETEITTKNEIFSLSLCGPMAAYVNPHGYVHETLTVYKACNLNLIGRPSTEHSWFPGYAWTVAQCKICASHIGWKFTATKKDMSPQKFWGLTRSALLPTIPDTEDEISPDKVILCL
# T1 sequence (Q16531 whole entry partner): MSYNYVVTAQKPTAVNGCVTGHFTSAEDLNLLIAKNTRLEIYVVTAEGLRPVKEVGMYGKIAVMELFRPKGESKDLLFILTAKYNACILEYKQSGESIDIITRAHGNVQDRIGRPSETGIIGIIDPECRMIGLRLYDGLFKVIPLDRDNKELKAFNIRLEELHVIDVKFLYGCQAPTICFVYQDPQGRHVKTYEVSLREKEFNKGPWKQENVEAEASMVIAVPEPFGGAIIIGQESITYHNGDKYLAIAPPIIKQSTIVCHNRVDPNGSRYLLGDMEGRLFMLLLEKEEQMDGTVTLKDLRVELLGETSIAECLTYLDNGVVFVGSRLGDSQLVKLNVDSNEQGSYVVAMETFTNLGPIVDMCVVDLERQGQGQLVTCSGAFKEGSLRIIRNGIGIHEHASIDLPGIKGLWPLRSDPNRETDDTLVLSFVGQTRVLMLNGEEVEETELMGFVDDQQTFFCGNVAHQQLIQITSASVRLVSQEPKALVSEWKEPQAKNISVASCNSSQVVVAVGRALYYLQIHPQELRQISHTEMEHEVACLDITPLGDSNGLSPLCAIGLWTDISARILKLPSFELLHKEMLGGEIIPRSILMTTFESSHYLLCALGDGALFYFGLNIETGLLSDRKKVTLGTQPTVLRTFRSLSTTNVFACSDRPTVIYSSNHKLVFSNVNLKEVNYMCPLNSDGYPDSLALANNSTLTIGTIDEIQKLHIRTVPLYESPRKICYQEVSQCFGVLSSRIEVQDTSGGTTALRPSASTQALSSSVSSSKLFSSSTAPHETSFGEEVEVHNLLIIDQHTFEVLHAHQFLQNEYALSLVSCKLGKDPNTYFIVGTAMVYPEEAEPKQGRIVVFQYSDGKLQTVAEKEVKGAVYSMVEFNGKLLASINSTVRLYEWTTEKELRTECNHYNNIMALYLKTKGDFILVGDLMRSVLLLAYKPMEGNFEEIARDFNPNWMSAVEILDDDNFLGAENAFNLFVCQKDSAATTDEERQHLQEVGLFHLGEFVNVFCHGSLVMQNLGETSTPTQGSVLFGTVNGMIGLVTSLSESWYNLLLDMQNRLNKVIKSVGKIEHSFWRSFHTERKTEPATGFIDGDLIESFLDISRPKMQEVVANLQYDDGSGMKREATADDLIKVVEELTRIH
# Method: (§1) Intracellular staining of Aiolos and Ikaros in primary human NK cells was performed by flow cytometry gating on live, CD3-CD4-CD8-CD56+CD16+NK cell populations.
# Aiolos [5] = biological target: T2, Aiolos (Homo sapiens, UniProt Q96SW2+Q9UKT9); experiment: Aiolos expression by western blot in DLBCL cells; type: cell-based; design: endogenous in cells; host or cells: Karpas 422, WSU-DLCL2, U2932 and TMD8 DLBCL cells; conditions: Karpas 422, WSU-DLCL2, U2932 and TMD8 cells, 0.1, 1, or 10 μM
# T2 sequence (Q9UKT9 whole entry): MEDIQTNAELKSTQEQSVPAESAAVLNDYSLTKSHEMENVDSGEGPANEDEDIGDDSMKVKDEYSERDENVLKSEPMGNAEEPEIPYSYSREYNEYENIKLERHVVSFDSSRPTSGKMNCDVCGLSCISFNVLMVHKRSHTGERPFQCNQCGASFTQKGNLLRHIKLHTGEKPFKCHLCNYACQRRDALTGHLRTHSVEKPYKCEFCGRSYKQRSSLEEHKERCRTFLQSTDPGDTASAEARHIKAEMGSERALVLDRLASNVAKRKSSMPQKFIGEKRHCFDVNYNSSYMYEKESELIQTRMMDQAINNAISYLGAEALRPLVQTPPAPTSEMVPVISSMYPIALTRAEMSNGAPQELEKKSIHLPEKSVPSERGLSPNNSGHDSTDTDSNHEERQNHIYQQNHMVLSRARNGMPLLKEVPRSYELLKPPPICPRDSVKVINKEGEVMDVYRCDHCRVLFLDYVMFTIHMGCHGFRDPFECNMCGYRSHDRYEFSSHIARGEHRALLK
# T2 sequence (Q96SW2 whole entry): as the sequence (Q96SW2 whole entry) above
# T2 sequence (Q16531 whole entry partner): as the sequence (Q16531 whole entry partner) above
# Method: (§2) Karpas 422, WSU-DLCL2, U2932 and TMD8 cells were treated with avadomide at a concentration of 0.1, 1, or 10 μM. The expression of Aiolos, Ikaros, […] and IRF4 were measured by western blot.
# NK cells = experiment: NK cell proliferation in DLBCL patient PBMCs stimulated with anti-CD3; type: cell-based, human; conditions: PBMCs treated 1 hour prior to anti-CD3 stimulation for 3 days
# Method: Percentage of NK cells was analyzed via flow cytometry gated on live CD3-CD19-CD14-CD56+CD16+NK cells. Cytokinic NK cells were […]16^low and cytotoxic NK cells were CD56^lowCD16^high populations.
# TMD8 cells = experiment: HLA-DR and CD86 expression in TMD8 cells by flow cytometry; type: cell-based; conditions: 48 hours
# Method: DLBCL cell line TMD8 was treated with avadomide for 48 hours. […] The result corroborated the ChIP-seq analysis (FIG. 10B).
# Aiolos [6] = biological target: T2, Aiolos; experiment: Degradation of Aiolos in primary NK cells (intracellular staining, flow cytometry); type: cell-based; design: endogenous in cells; host or cells: primary human NK cells gated from healthy-donor PBMCs; conditions: PBMCs from healthy donors (n=7), dose titrations, 5 hours
# Method: as §1
# [7] = test system: interferon stimulated genes; experiment: Induction of interferon stimulated genes in DLBCL cells; type: cell-based; conditions: correlated with degradation of Aiolos and Ikaros
# Method: as §2
# The induction of interferon stimulated genes was correlated with the degradation of Aiolos and Ikaros. […] Such direct regulation was shown using Chromatin Immunoprecipitation sequencing (ChIP-seq) analysis and generic methods, see, e.g., Hagner et al, Blood, 126(6):779-789 (2015), which is incorporated by reference in its entirety.
# Ikaros [8] = biological target: T1, Ikaros; experiment: Ikaros expression by western blot in DLBCL cells; type: cell-based; design: endogenous in cells; host or cells: Karpas 422, WSU-DLCL2, U2932 and TMD8 DLBCL cells; conditions: Karpas 422, WSU-DLCL2, U2932 and TMD8 cells, 0.1, 1, or 10 μM
# Method: as §2
# [9] = pretreatment 0.1 nM, 24 hour, donor 1
# [10] = pretreatment 0.1 nM, 24 hour, donor 2
# [11] = pretreatment 0.1 nM, 48 hour, donor 1
# [12] = pretreatment 0.1 nM, 48 hour, donor 2
# [13] = pretreatment 10 nM, 24 hour, donor 1
# [14] = pretreatment 10 nM, 24 hour, donor 2
# [15] = pretreatment 10 nM, 48 hour, donor 1
# [16] = pretreatment 10 nM, 48 hour, donor 2
smiles,measurement,setting,value
"N#Cc1ccc(N2CCN(Cc3ccc(COc4cccc5c4CN([C@H]4CCC(=O)NC4=O)C5=O)cc3)CC2)c(F)c1 [CC-92480, (S)-4-(4-(4-(((2-(2,6-dioxopiperidin-3-yl)-1-oxoisoindolin-4-yl)oxy)methyl)benzyl)piperazin-1-yl)-3-fluorobenzonitrile]",susceptibility of H929 target cells to lysis,"H929 target cells [1]; H929 target cells pretreated 48 hours, most notably at Protein 1 0.01-0.1 nM",more susceptible to lysis
same,Protein 1 induced ADCC (H929 cell depletion),"H929 target cells [1]; PBMC and H929 pretreated separately 48 hours, Protein 1 0 nM to 10 nM",enhanced
same,Protein 1 induced ADCC (H929 lysis),"H929 target cells [2]; PBMCs pretreated 24 or 48 hours at different concentrations, 0.1 nM Protein 1 overnight",enhanced
same,% lysis difference with Protein 1,H929 target cells [2]; [9],48.85%
same,% lysis with Protein 1,H929 target cells [2]; [9],58.27%
same,% lysis without Protein 1,H929 target cells [2]; [9],9.42%
same,% lysis difference with Protein 1,H929 target cells [2]; [10],76.64%
same,% lysis with Protein 1,H929 target cells [2]; [10],67.82%
same,% lysis without Protein 1,H929 target cells [2]; [10],−8.82%
same,% lysis difference with Protein 1,H929 target cells [2]; [11],79.40%
same,% lysis with Protein 1,H929 target cells [2]; [11],64.54%
same,% lysis without Protein 1,H929 target cells [2]; [11],−14.86%
same,% lysis difference with Protein 1,H929 target cells [2]; [12],36.79%
same,% lysis with Protein 1,H929 target cells [2]; [12],82.02%
same,% lysis without Protein 1,H929 target cells [2]; [12],45.23%
same,% lysis difference with Protein 1,H929 target cells [2]; [13],27.75%
same,% lysis with Protein 1,H929 target cells [2]; [13],28.79%
same,% lysis without Protein 1,H929 target cells [2]; [13],1.04%
same,% lysis difference with Protein 1,H929 target cells [2]; [14],−33.32%
same,% lysis with Protein 1,H929 target cells [2]; [14],−43.51%
same,% lysis without Protein 1,H929 target cells [2]; [14],−10.19%
same,% lysis difference with Protein 1,H929 target cells [2]; [15],72.35%
same,% lysis with Protein 1,H929 target cells [2]; [15],42.46%
same,% lysis without Protein 1,H929 target cells [2]; [15],−29.89%
same,% lysis difference with Protein 1,H929 target cells [2]; [16],52.72%
same,% lysis with Protein 1,H929 target cells [2]; [16],59.57%
same,% lysis without Protein 1,H929 target cells [2]; [16],6.85%
same,Protein 1 induced ADCC (H929 lysis),H929 target cells [3],enhanced
"Cc1nc2cccc(N)c2c(=O)n1C1CCC(=O)NC1=O (centres unmarked) [avadomide, 3-(5-amino-2-methyl-4-oxoquinazolin-3(4H)-yl)piperidine-2,6-dione]",NKG2D+ NK cells in DLBCL patient PBMC,NKG2D+ NK cells,significantly expanded
same,degradation of Ikaros in primary NK cells,Ikaros [4],mediates degradation
same,degradation of Aiolos in DLBCL cells,Aiolos [5],mediated degradation
same,NK cell proliferation in DLBCL patient samples,NK cells,dose dependently enhanced
same,expression of CD86,TMD8 cells,enhanced expression
same,expression of HLA-DR,TMD8 cells,enhanced expression
same,degradation of Aiolos in primary NK cells,Aiolos [6],mediates degradation
same,induction of interferon stimulated genes in DLBCL cells,[7],induction
same,degradation of Ikaros in DLBCL cells,Ikaros [8],mediated degradation
"Nc1cccc2c1CN(C1CCC(=O)NC1=O)C2=O (centres unmarked) [lenalidomide, 3-(7-amino-3-oxo-1H-isoindol-2-yl)piperidine-2,6-dione]",NKG2D+ NK cells in DLBCL patient PBMC,NKG2D+ NK cells,significantly expanded

# Reference: patent US20230364230A1, “COMBINATION THERAPY FOR CANCER” (ENGMAB SÀRL, priority 2020, published 2023)
